One data set concerns S. flexneri SDINT. Put plainly: Broth microdilution MIC/MBC. Type of data set: cell-based, Shigella flexneri. The protocol: (§1) A total of six bacterial strains were tested for their susceptibility to compounds and these strains were taken from our laboratory collection (kindly provided by Dr. T. Ramamurthy, NICED, Kolkata). Among the clinical strains of Vibrio cholerae used in this study, strains NB2 and SG24 and CO6 belonged to O1 and O139 serotypes, respectively. […]. The other strains used in this study were V. cholerae non-O1, non-O139 (strain PC2); […]. The American Type Culture Collection (ATCC) strain, Staphylococcus aureus ATCC 25923, was used for quality control. The bacterial strains were maintained on agar slant at 4 °C and subcultured on a fresh appropriate agar plates 24 h prior to any antibacterial test. The Mueller Hinton Agar (MHA) was used for the activation of bacteria. The Mueller Hinton Broth (MHB) and nutrient agar (Hi-Media) were used for the MIC and MBC determinations respectively.
(§2) Suspensions of bacteria were prepared in MHB from cells arrested during their logarithmic phase growth (4 h) on MHB at 37 °C. The turbidity of the microbial suspension was read spectrophotometrically at 600 nm and adjusted to an OD of 0.1 with MHB, which is equivalent to 1 × 10^8 CFU/mL. From this prepared solution, other dilutions were made with MHB to yield 1x10^6 CFU/mL.
(§3) MIC and MBC of compounds 1–3 were assessed using the broth microdilution method recommended by the National Committee for Clinical Laboratory Standards with slight modifications. Each test sample was dissolved in dimethylsulfoxide (DMSO) to give a stock solution. The 96-well round bottom sterile plates were prepared by dispensing 180 μL of the inoculated broth (1x10^6 CFU/mL) into each well. A 20 μL aliquot of the stock solution of compound was added. The concentrations of sample tested were 0.125, 0.25, 0.50, 1, 2, 4, 8, 16, 32, 64, 128, 256 and 512 μg/mL. […] Dilutions of tetracycline and ampicillin served as positive controls, while broth with 20 μL of DMSO was used as negative control. The ATCC strain Staphylococcus aureus ATCC 25923 was included for quality assurance purposes. Plates were covered and incubated for 24 h at 37 °C. After incubation, minimum inhibitory concentrations (MIC) were read visually; all wells were plated to nutrient agar (Hi-Media) and incubated. The minimal bactericidal concentration (MBC) was defined as a 99.9% reduction in CFU from the starting inoculums after 24 h incubation interval.

Data set [1] relates to studied microorganisms (six bacterial strains). The experiment in a line: Antibacterial spectrum over the six tested strains (broth microdilution). Type of data set: cell-based. To be noted: out of 6 strains; concentrations up to 512 μg/mL. The protocol:
as §1, §3
On the technique in general: Broth dilution looks for growth in wells or tubes with falling amounts of substance.

Data set [2] is described as follows: MTT cytotoxicity assay. Format: cell-based, Human. The following applies: human, HeLa cells; MTT, 24 h, mean ± SD; read-out: Cytotoxicty (LC50) HeLa cells. The method, then: (§4) HeLa (Human cervical cancer cell line, ATCC No. CCL-2) and Vero cells (African green monkey kidney cells, normal non-cancer cells, ATCC No. CCL-81), obtained from the American Type Culture Collection (ATCC) were used in this study. Cytotoxic activity was determined using the 3-(4,5-dimethylthiazol-2-yl)-2,5-diphenyltetrazolium bromide (MTT, Sigma, USA) assay reported by Mosmann for the HeLa and Vero cells. This cell viability assay is based on living cell‘s property to transform the MTT dye tetrazolium ring into a purple-colored formazan structure due to the action of mitochondrial and other dehydrogenases inside the cell. The color intensity yielded by the cell population is directly proportional to the number of viable cells, and one can quantify the absorbance measurements using mathematical parameters. Each test sample was dissolved in dimethylsulfoxide (DMSO) to give a stock solution. Compounds 1–3 were prepared from the stock solutions by serial dilution in RPMI 1640 to give a volume of 100 μL in each well of a microtiter plate (96-well). Each well was filled with 100 μL of cells at 2 × 10^5 cells/mL. The assay for each concentration of compound was performed in triplicates and the culture plates were kept at 37 °C with 5% (v/v) CO2 for 24 h. After removing the supernatant of each well and washing twice by PBS, 20 μL of MTT solution (5 mg/mL in PBS) and 100 μL of medium were then introduced. After 4 h of incubation, 100 μL of DMSO were added to each well to dissolve the formazan crystals and the absorbance values at 490 nm were measured with a microplate reader (Bio-RAD 680, USA). The relative cell viability (%) was expressed as a relative percentage of treated cells to the untreated control cells (TC/UC × 100). The rate of cell inhibition was calculated using the following formula: inhibition rate = [1- (ODtest/ODnegative control)] × 100%. The LC50 values were calculated as the concentration of test sample resulting in a 50% reduction of absorbance compared to untreated cells. Cells treated with 5-fluorouridine + RPMI 1640 served as positive control while cells left untreated + 1% (v/v) DMSO + RPMI 1640 were used as negative control.
(Tetrazolium assays rely on reduction of a dye to a coloured formazan, in cell work by metabolically active cells.)

The next data set relates to HeLa cells. The experiment in a line: MTT cytotoxicity assay. To be noted: SI = LC50 on Vero cells / LC50 on HeLa cells. Format: cell-based, Human. The protocol:
as §4

Data set [3] can be described thus: MTT cytotoxicity assay. Format: cell-based. To be noted: African green monkey, Vero cells, normal non-cancer cells, mean ± SD, read-out: Cytotoxicty (LC50) Vero cells. The method, then:
as §4

Another data set can be described thus: Hemolytic assay. Type of data set: cell-based. The following applies: male, 1% human red blood cell suspension, 512 μg/mL (highest concentration tested), 1% human red blood cells, PBS pH 7.4, 37 °C. The protocol: Whole blood (10 mL) from a healthy person was collected into a conical tube containing heparin as an anticoagulant. Erythrocytes were harvested by centrifugation at room temperature for 10 min at 1,000 × g and were washed three times in PBS solution. The top layer (plasma) and the next, milky layer (buffy coat with a layer of platelets on top of it) were then carefully aspirated and discarded. The cell pellet was resuspended in 10 mL of PBS solution and mixed by gentle aspiration with a Pasteur pipette. This cell suspension was used immediately.
For the normal human red blood cells, which were in suspension, the cytotoxicity was evaluated as previously described. Compounds 1–3, at concentrations ranging from 32 to 512 μg/mL, were incubated with an equal volume of 1% human red blood cells in phosphate buffered saline (10 mM PBS, pH 7.4) at 37 °C for 1 h. Tetracycline was tested simultaneously. Non-hemolytic and 100% hemolytic controls were the buffer alone and the buffer containing 1% Triton X-100, respectively. Cell lysis was monitored by measuring the release of hemoglobin at 595 nm with a spectrophotometer (Thermo Scientific, USA). Percent hemolysis was calculated as follows: [(A595 of sample treated with compound - A595 of sample treated with buffer)/(A595 of sample treated with Triton X-100 – A595 of sample treated with buffer)] x 100.

The subject of a further data set is S. aureus ATCC 25923. Put plainly: Broth microdilution MIC/MBC. Format: cell-based, Staphylococcus aureus. The method, then: as §1, §2, §3

The text below walks through data of PMC5109658, “Antibacterial and cytotoxic cytochalasins from the endophytic fungus Phomopsis sp. harbored in Garcinia kola (Heckel) nut” (BMC Complementary and Alternative Medicine, 2016).

A word on the MBC: it is the smallest concentration meeting the test's criterion for killing. As a reminder, the MIC is the smallest concentration in the dilution series that meets the test's criterion for growth inhibition.

≈ marks a conversion by molar mass, not a printed value. Like-named read-outs stand apart in the source and are kept apart here.

Consider `C=C1[C@@H](C)C2[C@H](Cc3ccccc3)NC(=O)[C@@]23C(/C=C/C[C@H](C)C[C@@](C)(O)/C=C/[C@H]3OC(C)=O)[C@@H]1O` (stereo partly shown) [Compound 2, cytochalasin H], for which the MBC/MIC in the data set with S. flexneri SDINT (S. flexneri SDINT) and in the data set on S. aureus ATCC 25923 (S. aureus ATCC 25923) was 1 each time. The “Selectivity Index S. flexneri SDINT” value in the data set on S. flexneri SDINT (SI = LC50 on Vero cells / MIC) turned out to be 1.00. The MBC in the data set on S. flexneri SDINT (Shigella flexneri, S. flexneri SDINT, 99.9% reduction in CFU after 24 h) was determined as 128 µg/mL (≈ 259 µM); in the data set with S. aureus ATCC 25923 (Staphylococcus aureus, ATCC25923, S. aureus ATCC 25923, 99.9% reduction in CFU after 24 h) it was 256 µg/mL (≈ 519 µM). In addition, the MIC in the data set with S. flexneri SDINT (Shigella flexneri, S. flexneri SDINT, 24 h at 37 °C, read-out: MIC) was determined as 128 µg/mL (≈ 259 µM); in the data set on S. aureus ATCC 25923 (Staphylococcus aureus, ATCC25923, S. aureus ATCC 25923, 24 h at 37 °C), 256 µg/mL (≈ 519 µM). Also, in data set [1], the “share of the studied microorganisms on which inhibitory effects were noted” value is 83.33%. In addition, the figures for the CC50 at 24 h in “MTT cytotoxicity assay [2]” and in the data set “MTT cytotoxicity assay [3]” were 35.7 ± 1.31 µg/mL (≈ 72.3 µM) and 129.1 ± 1.2 µg/mL (≈ 262 µM), respectively. In addition, the “Selectivity Index HeLa cells” value in the data set with HeLa cells turned out to be 3.61. Moreover, in “Hemolytic assay”, the hemolysis at 1 h, 512 μg/mL was 20.1%. The “Selectivity Index S. aureus ATCC 25923” value in the data set with S. aureus ATCC 25923 (SI = LC50 on Vero cells / MIC) is given as 0.50.
